Measured values from US20220380430A1, “Non-Transgenic Functional Rescue of Neuropeptides” (Worcester Polytechnic Institute, priority 2021, published 2022).
No end group written: not given here.

Columns and labels:
flp-3 lof males = assay: Drop avoidance assay to ascr #8 after FLP-3 peptide rescue-by-feeding; type: in vivo, C. elegans; settings: flp-3 lof males raised on peptide; 1 μM ascr #8; in words
Description: To identify which FLP-3 peptides are required for male avoidance of ascr #8, a peptide feeding approach https://www.nature.com/articles/s42003-021-02547-7-ref-CR59 was adopted, similar to RNAi feeding (FIG. 16A). Using Gateway Cloning technology, FLP-3 peptide coding sequences were inserted into a bacterial expression vector. As a control, first the FLP-3 peptides were tested that are still encoded in the ok3625 allele which are insufficient to drive the proper ascr #8 response in vivo: FLP-3-1 (SPLGTMRFamide) (SEQ ID NO: 10) and FLP-3-4 (NPLGTMRFamide) (SEQ ID NO: 11). Then flp-3 lof animals were reared on lawns of bacteria expressing the rescue constructs, and their progeny were assayed for avoidance (FIG. 16B-FIG. 16D).
Assays were performed as described previously in Chute, C. D. & Srinivasan, J. Semin. Cell Dev. Biol. 33, 18-24 (2014); Chute, C. D. et al. Nat. Commun. 10, 3186 (2019); and Hilliard, M. A. et al., EMBO J. 23, 1101-1111 (2004). Fifty to sixty L4 worms were segregated by sex and stored at 20° C. for 5 h to overnight to be assayed as young adults. One to four hours prior to the assay, the lids of unseeded plates were tilted to allow any excess moisture to evaporate off the plates. At the time of the assay, 10 or more animals were transferred onto each of the dried, unseeded plates. A drop of either water or 1 μM ascr #8 was placed on the tail of forward moving animals, and their response was scored as either an avoidance response, or no response. The total number of avoidances was divided by the total number of drops to generate an avoidance index for that plate. This was repeated for at least 10 plates over at least three different days.
SCRAMBLE control or FLP-3 peptide constructs were grown overnight in LB media containing […] ampicillin at 37° C. and diluted to an OD600 of 1.0 prior to seeding on NGM plates containing […] ampicillin and 1 mM IPTG. The 75 μL lawn was left to dry and grow overnight at room temperature before three L4 animals were placed on the plates. Males were selected for testing in the same manner as described above but were isolated onto plates also seeded with the same peptide on which they had been reared. Animals were then assayed using either the avoidance assay or single worm assay.

trh-1 mutant worms = assay: Size comparison (body volume) after rescue-by-feeding; type: in vivo, C. elegans; settings: trh-1 mutant animals fed peptide; N2 set as 100%
Description: All animals were maintained on bacterial lawns of OP50 E. coli, at 20° C., on NGM agar plates until the start of experiments. Mutant or control animals were transferred onto lawns of DH5α E. coli expressing either scramble peptide or the rescue peptide-of-interest on NGM plates containing […] AMP and 1 mM IPTG. Animals were reared on the peptide-expressing lawns for at least 48 hours at 20° C. before assaying for rescue of mutant phenotype at the appropriate developmental stage.
The body morphology different of trh-1 mutants was compared to wild-type worms by body volume measurements. Wild-type (N2) and trh-1 animals were synchronized by embryonic starvation following alkaline hypochlorite protocols. Ten gravid hermaphrodites from OP50 E. coli plates were picked into 30 μL drops of alkaline hypochlorite solution (20% sodium hypochlorite, 500 mM KOH). Two drops were placed on either side of an unseeded NGM plate, resulting in 20 animals per plate. Plates were then incubated for 24 hours at 20° C. before L1 larval animals washed with 1 mL M9 (22 mM KH2PO4, 42.25 mM Na2HPO4, 85.5 mM NaCl, 1 mM MgSO4) per unseeded NGM plate. Allow L1 worms to settle into pellet before removing M9 supernatant. Repeat washing step 2 more times. Plate worm pellet onto NGM with […] AMP and 1 mM IPTG plates containing 75 μL peptide lawns.
After at 48 hours at 20° C., animals were recorded using a Basler acA2500-14 uM camera using WormLab software (WormLab 4.1; MBF Bioscience, 2017) for 65 seconds. Worm length, width, and area were calculated within the WormLab software (FIG. 5C-FIG. 5H). As the WormLab worm width metric is an average of cross-sections throughout the length of each worm, this was used to calculate the volume of a worm as a cylinder, with the Volume=π*(0.5*width)^2*length (FIG. 2A-FIG. 2B, FIG. 5A-FIG. 5B).
Two to four plates were recorded per day for at least three days to generate data sets. Control plates of N2 and trh-1 animals raised on the scramble peptide were grown alongside every rescue feeding. Each “worm track” was considered an n=1. Tracks were excluded if (1) worm tracks less than 10 seconds, or (2) worms were further than two standard deviations from the mean metric. Following tests for normality, comparisons were made using either Mann-Whitney tests for direct comparisons between N2 and trh-1 animals reared on OP50, or Kruskal-Wallis non-parametric ANOVAs and Dunn's multiple comparisons tests for animals raised on peptide feeding strains. Comparisons were made for metrics: length (FIG. 5C-FIG. 5D), width (FIG. 5e-FIG. 5F), area (FIG. 5G-FIG. 5H), and volume (FIG. 2A-FIG. 2B, FIG. 5A-FIG. 5B).

NSKLHRGGGRSRTSGSTGSMASHARGSPGLQ-NH2 [SCRAMBLE, scramble control peptide expressed in E. coli DH5α, negative control, reference compound]
rescue of avoidance phenotype to ascr #8 (Avoidance Index) (flp-3 lof males): does not affect behavior
Relative Body Volume (trh-1 mutant worms): ~120%
